Source: ChEMBL document CHEMBL1201862, “PubChem BioAssay data set” (2004)
Calls of active or inactive are those of the source. Rule as the data show it: actives have a measured IC50 and inactives only a lower limit.

Molecular target: Envelope glycoprotein gp160 (Human immunodeficiency virus 1, UniProt Q6QLK5)
Experiment: inhibitors of HIV fusion peptide binding, primary screen, biochemical, uHTS, fluorescence dequenching (AID 1986)

Sequence of Envelope glycoprotein gp160 (Q6QLK5 whole entry, the tested form may be a part): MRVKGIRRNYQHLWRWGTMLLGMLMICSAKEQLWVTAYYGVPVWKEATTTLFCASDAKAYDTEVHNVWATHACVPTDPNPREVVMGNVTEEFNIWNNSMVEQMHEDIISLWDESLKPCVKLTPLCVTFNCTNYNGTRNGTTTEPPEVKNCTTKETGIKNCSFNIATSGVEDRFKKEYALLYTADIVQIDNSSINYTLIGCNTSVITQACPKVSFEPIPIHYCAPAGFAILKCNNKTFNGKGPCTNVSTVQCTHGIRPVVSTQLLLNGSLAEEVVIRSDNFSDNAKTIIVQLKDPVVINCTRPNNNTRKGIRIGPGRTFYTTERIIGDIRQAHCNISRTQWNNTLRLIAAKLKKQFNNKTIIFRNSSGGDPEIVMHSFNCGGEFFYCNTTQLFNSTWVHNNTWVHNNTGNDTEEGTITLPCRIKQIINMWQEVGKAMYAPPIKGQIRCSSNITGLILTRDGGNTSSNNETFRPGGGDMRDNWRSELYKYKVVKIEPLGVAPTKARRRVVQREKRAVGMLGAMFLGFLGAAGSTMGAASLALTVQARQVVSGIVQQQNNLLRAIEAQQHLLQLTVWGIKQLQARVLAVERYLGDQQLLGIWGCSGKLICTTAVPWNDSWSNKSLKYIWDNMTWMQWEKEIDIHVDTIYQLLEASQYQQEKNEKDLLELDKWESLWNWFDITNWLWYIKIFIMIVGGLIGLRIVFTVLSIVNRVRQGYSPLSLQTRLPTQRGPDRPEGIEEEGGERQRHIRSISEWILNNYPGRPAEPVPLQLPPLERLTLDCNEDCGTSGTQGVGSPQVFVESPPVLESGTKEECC

Row | Structure (SMILES) | IC50
1 | CC(C(=O)Nc1ccc(O)c(C(=O)O)c1)N1C(=O)/C(=C/c2cccs2)SC1=S (stereo not drawn) | 18.8 µM (active)
2 | O=C1NC(=O)/C(=C/c2ccc(-c3cc(C(=O)O)ccc3Cl)o2)S1 | 25.8 µM (active)
3 | COCCN1C(=O)/C(=C/c2ccc(OCc3ccc(C(=O)O)cc3)c(OC)c2)S/C1=N\c1ccccc1 | 15.1 µM (active)
